Source: patent publication US7235679B2, “Crystals of a vitamin D derivative and a method for the preparation thereof” (Chugai Seiyaku Kabushiki Kaisha, priority 1996, dated 2007)

Key:
[1] = Stability test of ED-71: purity measurement using normal phase HPLC; assay type: physicochemical; details: 265 nm
Experimental: (§1) Amorphous and crystalline ED-71 compounds were tested for stability at 10, 25 and […]. To estimate the stability, HPLC quantitative assay and absorbance and purity measurements were utilized. The purity was expressed as peak area ratio in percentage in HPLC (% P.A.R.). The test was carried out by using the following procedures:
(§2) About 2 mg portions of each of the amorphous and crystalline samples are precisely weighed into transparent 10 ml test tubes each having screw cap, individually.
(§3) The test tubes are purged with argon using a vacuum desiccator and a glove box. This purging procedure is not applied to the test tubes indicated as “1 M (air)” in the tables below.
(§4) The test tubes in groups are fixed in thermostatic baths which are respectively controlled at the above temperatures and allowed to stand in the dark. After one (1 W) or two (2 W) weeks or one month (1 M), the test tubes are removed from the baths and subjected to the following assay and measurements:
1 ml of the sample solution as prepared in “HPLC quantitative assay” above is dried in vacuo to remove the solvent (absolute ethanol). The residue is dissolved in 1 ml of methylene chloride. HPLC assay is carried out using 25 μl of this solution. • HPLC conditions used: • Column: YMC A-004SIL (4.6×300 mm) • Mobile phase: methylene chloride/methanol mixture (96/4) • Flow rate: 1.8 ml/min • Detection: at UV 265 nm.

[2] = Stability of ED-71 crystalline compound, overall conclusion; assay type: physicochemical; details: up to 2 weeks at 25° C. and 40° C.
Experimental: as §1, §2, §3, §4
The values of the HPLC quantitative assay and the purity measurement are averaged over two runs.

Row | Compound | Purity Measurement Using Normal Phase HPLC, ED-71 peak ([1]; 10° C., 1 M (air), dark) [% P.A.R] | Purity Measurement Using Normal Phase HPLC, Other peaks ([1]; 10° C., 1 M (air), dark) [% P.A.R] | Purity Measurement Using Normal Phase HPLC, Pre Form peak ([1]; 10° C., 1 M (air), dark) [% P.A.R] | Purity Measurement Using Normal Phase HPLC, ED-71 peak ([1]; 10° C., 1 M, argon, dark) [% P.A.R] | Purity Measurement Using Normal Phase HPLC, Other peaks ([1]; 10° C., 1 M, argon, dark) [% P.A.R] | Purity Measurement Using Normal Phase HPLC, Pre Form peak ([1]; 10° C., 1 M, argon, dark) [% P.A.R] | Purity Measurement Using Normal Phase HPLC, ED-71 peak ([1]; 10° C., 2 W, argon, dark) [% P.A.R] | Purity Measurement Using Normal Phase HPLC, Other peaks ([1]; 10° C., 2 W, argon, dark) [% P.A.R] | Purity Measurement Using Normal Phase HPLC, Pre Form peak ([1]; 10° C., 2 W, argon, dark) [% P.A.R] | Purity Measurement Using Normal Phase HPLC, ED-71 peak ([1]; 10° C., time 0) [% P.A.R] | Purity Measurement Using Normal Phase HPLC, Other peaks ([1]; 10° C., time 0) [% P.A.R] | Purity Measurement Using Normal Phase HPLC, Pre Form peak ([1]; 10° C., time 0) [% P.A.R] | Purity Measurement Using Normal Phase HPLC, ED-71 peak ([1]; 25° C., 1 W, argon, dark) [% P.A.R] | Purity Measurement Using Normal Phase HPLC, Other peaks ([1]; 25° C., 1 W, argon, dark) [% P.A.R] | Purity Measurement Using Normal Phase HPLC, Pre Form peak ([1]; 25° C., 1 W, argon, dark) [% P.A.R] | Purity Measurement Using Normal Phase HPLC, ED-71 peak ([1]; 25° C., 2 W, argon, dark) [% P.A.R] | Purity Measurement Using Normal Phase HPLC, Other peaks ([1]; 25° C., 2 W, argon, dark) [% P.A.R] | Purity Measurement Using Normal Phase HPLC, Pre Form peak ([1]; 25° C., 2 W, argon, dark) [% P.A.R] | Purity Measurement Using Normal Phase HPLC, ED-71 peak ([1]; 25° C., time 0) [% P.A.R] | Purity Measurement Using Normal Phase HPLC, Other peaks ([1]; 25° C., time 0) [% P.A.R] | also measured
1 | C=C1/C(=C\C=C2/CCC[C@@]3(C)C2CC[C@@H]3[C@H](C)CCCC(C)(C)O)C[C@@H](O)[C@@H](OCCCO)[C@@H]1O (stereo partly drawn) [Amor., 1α,25-dihydroxy-2β-(3-hydroxypropoxy)vitamin D3] | 95.26 | 2.42 | 2.31 | 94.58 | 3.09 | 2.33 | 95.46 | 2.28 | 2.27 | 96.06 | 2.27 | 1.67 | 95.97 | 2.14 | 1.88 | 94.74 | 3.01 | 2.25 | 96.06 | 2.27 | Purity Measurement Using Normal Phase HPLC, Pre Form peak ([1]; 25° C., time 0): 1.67 % P.A.R; Purity Measurement Using Normal Phase HPLC, ED-71 peak ([1]; 40° C., 1 W, argon, dark): 94.47 % P.A.R; Purity Measurement Using Normal Phase HPLC, Other peaks ([1]; 40° C., 1 W, argon, dark): 3.00 % P.A.R; Purity Measurement Using Normal Phase HPLC, Pre Form peak ([1]; 40° C., 1 W, argon, dark): 2.53 % P.A.R; Purity Measurement Using Normal Phase HPLC, ED-71 peak ([1]; 40° C., 2 W, argon, dark): 92.12 % P.A.R; Purity Measurement Using Normal Phase HPLC, Other peaks ([1]; 40° C., 2 W, argon, dark): 4.89 % P.A.R; Purity Measurement Using Normal Phase HPLC, Pre Form peak ([1]; 40° C., 2 W, argon, dark): 2.99 % P.A.R; Purity Measurement Using Normal Phase HPLC, ED-71 peak ([1]; 40° C., time 0): 96.06 % P.A.R; Purity Measurement Using Normal Phase HPLC, Other peaks ([1]; 40° C., time 0): 2.27 % P.A.R; Purity Measurement Using Normal Phase HPLC, Pre Form peak ([1]; 40° C., time 0): 1.67 % P.A.R
2 | C=C1/C(=C\C=C2/CCC[C@]3(C)[C@@H]([C@H](C)CCCC(C)(C)O)CC[C@@H]23)C[C@@H](O)[C@@H](OCCCO)[C@@H]1O [Crys., 1α,25-dihydroxy-2β-(3-hydroxypropoxy)vitamin D3] | 98.88 | 0.46 | 0.66 | 98.91 | 0.44 | 0.65 | 99.06 | 0.27 | 0.66 | 99.15 | 0.63 | 0.21 | 99.56 | 0.30 | 0.14 | 98.95 | 0.38 | 0.67 | 99.15 | 0.63 | stability compared with the amorphous form [2]: higher stability; Purity Measurement Using Normal Phase HPLC, Pre Form peak ([1]; 25° C., time 0): 0.21 % P.A.R; Purity Measurement Using Normal Phase HPLC, ED-71 peak ([1]; 40° C., 1 W, argon, dark): 99.55 % P.A.R; Purity Measurement Using Normal Phase HPLC, Other peaks ([1]; 40° C., 1 W, argon, dark): 0.31 % P.A.R; Purity Measurement Using Normal Phase HPLC, Pre Form peak ([1]; 40° C., 1 W, argon, dark): 0.14 % P.A.R; Purity Measurement Using Normal Phase HPLC, ED-71 peak ([1]; 40° C., 2 W, argon, dark): 98.92 % P.A.R; Purity Measurement Using Normal Phase HPLC, Other peaks ([1]; 40° C., 2 W, argon, dark): 0.41 % P.A.R; Purity Measurement Using Normal Phase HPLC, Pre Form peak ([1]; 40° C., 2 W, argon, dark): 0.67 % P.A.R; Purity Measurement Using Normal Phase HPLC, ED-71 peak ([1]; 40° C., time 0): 99.15 % P.A.R; Purity Measurement Using Normal Phase HPLC, Other peaks ([1]; 40° C., time 0): 0.63 % P.A.R; Purity Measurement Using Normal Phase HPLC, Pre Form peak ([1]; 40° C., time 0): 0.21 % P.A.R
